Patent US20060173066A1, “Remedy for diabetes” (Kyowa Hakko Kogyo Co., Ltd., priority 2003, published 2006)

Legend:
C2C12 cells = test: Example 6: consumption of glucose of differentiated C2C12 cells (glucose concentration in supernatant); format: cell-based, mouse; conditions: for Glucose (concentration in supernatant after incubation): 3 days incubation, mean ± standard deviation, n=3; for action on insulin effect on muscle (conclusion from Table 8): 100 μg/ml with insulin 0.1 μg/ml; for insulin concentration necessary to achieve the same result if insulin is used solely: relative to 0.1 μg/ml insulin used with 100 μg/ml test substance (1 μg/ml)
Protocol: Each 1.2×10^5 C2C12 cells (cell strain derived from striated muscles of mouse; Dainippon Pharmaceutical Co., Ltd.) was inoculated on a 12-well plate and incubated at 37° C. for 3 days in a CO2 incubator (5% CO2/95% air) with a DMEM medium (manufactured by Invitrogen) to which 10% fetal bovine serum (manufactured by Invitrogen) was added. When the cells became confluent, the medium was exchanged to a DMEM medium to which 2% horse serum (manufactured by Invitrogen) was added and incubation was further conducted for 4 days to differentiate to myotubes. The medium was exchanged once again with a DMEM medium to which 2% horse serum was added and further incubated for 3 days after addition of bovine insulin (manufactured by Invitrogen) so as to make its final concentration 1 μg/ml or 0.1 μg/ml, a mixture of bovine insulin and trans-4-hydroxy-L-proline methyl ester (manufactured by Kokusan Chemical Co., Ltd.; hereinafter, referred to as hydroxyproline methyl ester) so as to make their final concentrations 0.1 μg/ml and 100 μg/ml, respectively or a mixture of bovine insulin and hydroxyproline ethyl ester so as to make their final concentrations 0.1 μg/ml and 100 μg/ml, respectively. Each of the supernatant liquids after the incubation was recovered and glucose concentration was measured by a Glucose CII Test Wako (manufactured by Wako Pure Chemical Industries, Ltd.) whereby consumption of glucose of the differentiated C2C12 cells was investigated. The values are shown by mean value±standard deviation (n=3, mg/l) and statistic ratio of risk (p value) was determined by a t-test.

[1] = tested on: KK-Ay/Ta Jcl mice of a type 2 diabetic model; test: Example 2: non-fasting blood-sugar level in mice fed CE-2 feed with 1% by weight of test substance; format: in vivo; conditions: for antidiabetic action (conclusion from Table 3): 10 days; for Blood-Sugar Level, 10th Day of the Test / Blood-Sugar Level, Initial Day of the Test: non-fasting, tail vein blood, mean ± standard error, n=5; for Blood-Sugar Level, Initial Day of the Test: initial day (baseline)
Excerpt: (§1) KK-Ay/Ta Jcl mice (Clea Japan, Inc.; male;,six weeks age) (15 mice) of a type 2 diabetic model were divided into three groups each comprising five mice and named group 1 to group 3.
(§2) The mice of the groups 1 to 3 were made free to take feed and water. A commercially available feed CE-2 (manufactured by Clea Japan, Inc.) was ingested to the mice of group 1. CE-2 to which 1% by weight of trans-4-hydroxy-L-proline ethyl ester (manufactured by Sanyo Chemical Laboratory Co., Ltd.; hereinafter, abbreviated as hydroxyproline ethyl ester) was added was ingested to the mice of group 2. CE-2 to which 1% by weight of trans-N,O-diacetyl-4-hydroxy-L-proline oleyl ester (manufactured by Nissei Kagaku; hereinafter, abbreviated as diacetylhydroxyproline oleyl ester) was added was ingested to the mice of group 3.
(§3) On the initial day of the test and on the 10th day thereafter, blood was collected from tail vein and blood-sugar level upon non-fasting was measured by a Medisafe Reader GR-101. The mice were fasted for 18 hours during the 10th day to the 11th day after the start of the test and whole blood was collected from descending vena cava to prepare serum. The serum-insulin level was measured by a Levi Insulin Kit Mouse-T. The value was shown by mean value±standard error (n=5) and statistic ratio of risk (p value) was determined by a t-test. With regard to the ingested amounts during the test periods, there was no significant difference among the groups 1 to 3.

[2] = tested on: KK-Ay/Ta Jcl mice of a type 2 diabetic model; test: Example 2: serum-insulin level after 18 hours fasting in mice fed CE-2 feed with 1% by weight of test substance; format: in vivo; conditions: for Serum-Insulin Level: 11th day after 18 hours fasting, mean ± standard error, n=5
Excerpt: as §1, §2, §3

[3] = tested on: KK-Ay/Ta Jcl mice of a type 2 diabetic model; test: Example 1: serum-insulin level after 18 hours fasting in mice fed CE-2 feed with 1% by weight of test substance; format: in vivo
Excerpt: (§4) KK-Ay/Ta Jcl mice (Clea Japan, Inc.; male; six weeks age) (15 mice) of a type 2 diabetic model were divided into three groups each comprising five mice and named group 1 to group 3.
(§5) The mice of the groups 1 to 3 were made free to take feed and water. A commercially available feed CE-2 (manufactured by Clea Japan, Inc.) was ingested to the mice of group 1. CE-2 to which 1% by weight of trans-4-hydroxy-L-proline (manufactured by Kyowa Hakko Kogyo; hereinafter, abbreviated as hydroxyproline) was added was ingested to the mice of group 2. CE-2 to which 1% by weight of trans-N-acetyl-4-hydroxy-L-proline (manufactured by Kyowa Hakko Kogyo; hereinafter, abbreviated as N-acetylhydroxyproline) was added was ingested to the mice of group 3.
as §3, with “17th” for “10th”, “GR-101 (manufactured by Thermo Co.).” for “GR-101.”, “18th” for “11th”, “Mouse-T (manufactured by Shibayagi).” for “Mouse-T.”

[4] = tested on: KK-Ay/Ta Jcl mice of a type 2 diabetic model; test: Example 1: non-fasting blood-sugar level in mice fed CE-2 feed with 1% by weight of test substance; format: in vivo
Excerpt: as §4, §5
as §3, with “17th” for “10th”, “GR-101 (manufactured by Thermo Co.).” for “GR-101.”, “18th” for “11th”, “Mouse-T (manufactured by Shibayagi).” for “Mouse-T.”

[5] = tested on: KK-Ay/Ta Jcl mice of a type 2 diabetic model; test: Example 3: blood-sugar level after oral glucose load in fasted mice; format: in vivo; conditions: 1 g/kg B.W. oral
Protocol: KK-Ay/Ta Jcl mice (Clea Japan, Inc.; male; six weeks age) (16 mice) of a type 2 diabetic model were divided into 2 groups each comprising 8 mice and named group 1 and group 2.
After fasting for 18 hours, a physiological saline solution was orally administered to the mice of the group 1 while, to the mice of the group 2, 1 g/kg body weight (hereinafter, referred to as “B.W.”) of a 20% (w/v) aqueous solution of the N-acetylhydroxyproline (dissolved in a physiological saline solution) was orally administered. After 1 hour, 2 g/kg B.W. of a 40% (w/v) aqueous solution of glucose was orally administered to the mice of the groups 1 and 2 to load with sugar. Blood was collected from tail vein 60 minutes before (−60 minutes) administration of the aqueous glucose solution, upon the administration (0 minute) and 30 and 120 minutes after the administration and blood-sugar levels were measured by a Medisafe Reader GR-101. The value was shown by mean value±standard error (n=8) and statistic ratio of risk (p value) was determined by a t-test.

[6] = co-presence of 0.1 μg/ml of insulin and 100 μg/ml of test substance, vs insulin 0.1 μg/ml
[7] = test substance 100 μg/ml together with insulin 0.1 μg/ml

Insulin: bovine insulin (manufactured by Invitrogen) [reference compound]
consumption of glucose of C2C12 cells (C2C12 cells; addition of 0.1 μg/ml of insulin, vs nothing added): significantly promoted
Glucose (concentration in supernatant after incubation) (C2C12 cells; insulin 0.1 μg/ml alone): 1260 ± 15 *^1 mg/
Glucose (concentration in supernatant after incubation) (C2C12 cells; insulin 1 μg/ml alone): 942 ± 34 mg/L

CCOC(=O)[C@@H]1C[C@@H](O)CN1 [hydroxyproline ethyl ester, trans-4-hydroxy-L-proline ethyl ester]
antidiabetic action (conclusion from Table 3) [1]: antidiabetic action
Blood-Sugar Level, 10th Day of the Test [1]: 217.2 ± 11.3 mg/dL
Blood-Sugar Level, Initial Day of the Test [1]: 253.0 ± 9.5 mg/dL
antidiabetic action by improving insulin resistance (conclusion from Tables 3 and 4) [2]: show an antidiabetic action by improving the insulin resistance
Serum-Insulin Level [2]: 0.52 ± 0.10 ng/mL
action on insulin effect on muscle (conclusion from Table 8) (C2C12 cells): potentiate the action of insulin to the muscle
consumption of glucose of C2C12 cells (C2C12 cells; [6]): significantly increased
insulin concentration necessary to achieve the same result if insulin is used solely (C2C12 cells): ten-fold
Glucose (concentration in supernatant after incubation) (C2C12 cells; [7]): 984 ± 29 mg/L

COC(=O)[C@@H]1C[C@@H](O)CN1 [hydroxyproline methyl ester, trans-4-hydroxy-L-proline methyl ester]
action on insulin effect on muscle (conclusion from Table 8) (C2C12 cells): potentiate the action of insulin to the muscle
consumption of glucose of C2C12 cells (C2C12 cells; [6]): significantly increased
insulin concentration necessary to achieve the same result if insulin is used solely (C2C12 cells): ten-fold
Glucose (concentration in supernatant after incubation) (C2C12 cells; [7]): 926 ± 47 mg/L

CCCCCCCC/C=C\CCCCCCCCOC(=O)[C@@H]1C[C@@H](OC(C)=O)CN1C(C)=O (relative stereo) [diacetylhydroxyproline oleyl ester, trans-N,O-diacetyl-4-hydroxy-L-proline oleyl ester]
antidiabetic action (conclusion from Table 3) [1]: antidiabetic action
Blood-Sugar Level, 10th Day of the Test [1]: 215.2 ± 20.3 mg/dL
Blood-Sugar Level, Initial Day of the Test [1]: 241.0 ± 11.0 mg/dL
antidiabetic action by improving insulin resistance (conclusion from Tables 3 and 4) [2]: show an antidiabetic action by improving the insulin resistance
Serum-Insulin Level [2]: 0.64 ± 0.12 ng/mL

CC(=O)N1C[C@H](O)C[C@H]1C(=O)O [N-acetylhydroxyproline, trans-N-acetyl-4-hydroxy-L-proline]
antidiabetic action by improving insulin resistance (conclusion from Tables 1 and 2) [3]: show an antidiabetic action by improving the insulin resistance
Serum-Insulin Level ([3]; 18th day after 18 hours fasting, mean ± standard error, n=5): 0.69 ± 0.06 ng/mL
antidiabetic action (conclusion from Table 1) ([4]; 17 days): antidiabetic action
Blood-Sugar Level, 17th Day of the Test ([4]; non-fasting, tail vein blood, 17th day, mean ± standard error, n=5): 226.2 ± 12.9 mg/dL
Blood-Sugar Level, Initial Day of the Test ([4]; non-fasting, tail vein blood, initial day (baseline), mean ± standard error, n=5): 241.0 ± 15.5 mg/dL
antidiabetic action (conclusion from Table 5) ([5]; glucose load): antidiabetic action
Blood-Sugar Level, 30 min ([5]; 30 minutes after glucose 2 g/kg, mean ± standard error, n=8): 407.1 ± 17.1 mg/dL
Blood-Sugar Level, −60 min ([5]; 60 minutes before glucose 2 g/kg (baseline, at dosing), mean ± standard error, n=8): 159.4 ± 5.6 mg/dL
Blood-Sugar Level, 120 min ([5]; 120 minutes after glucose 2 g/kg, mean ± standard error, n=8): 210.4 ± 14.4 mg/dL
Blood-Sugar Level, 0 min ([5]; upon glucose administration 2 g/kg, mean ± standard error, n=8): 179.9 ± 11.6 mg/dL
